Reference: patent US6458846B1, “Ion channel modulating agents” (Neurosearch A/S, priority 1998, dated 2002)
Structures can show the parent of a compound that is named as a salt.

`ON=Cc1ccc(Cl)c(Cl)c1OCc1ccccc1` (as salt: HCl) [Compound 1e, O-Benzyl 2-formyl-5,6-dichlorophenol oxime] gave a melting point of 64 to 69 °C.
For `COc1c(C=NO)ccc(Cl)c1Cl` (as salt: HCl) [Compound 1f, O-Methyl 2-formyl-5,6-dichlorophenol oxime], the melting point was 82 to 83 °C.
With `CC(=O)c1ccccc1NC(C)=NO` [Compound 1i, N-(2-acetylphenyl)acetamide oxime] the melting point was 99 to 100 °C.
